Source: patent publication US8748445B2, “Methods for treating glioma” (The UAB Research Foundation, priority 2004, dated 2014)

What was measured:
[1] = tested on: glioma cell lines (D-54MG, U-87MG, U-251MG and STTG1) and a primary glioma culture (GBM62); assay: growth curves of glioma cells over 5 days; format: cell-based, human; conditions: 5 days; 0.1 and 0.25 mM (S)-4-CPG, 0.25 and 0.5 mM sulfasalazine; all glioma cell lines and GBM62 (FIGS. 3A, 3B)
Experimental: To examine whether the depletion of glutathione via inhibition of cystine uptake by system Xc affects the growth of glioma cells, growth curves for 4 glioma cell lines (D-54MG, U-87MG, U-251MG and STTG1) and a primary glioma culture (GBM62) were established.
In the presence of 0.25 mM (S)-4-CPG, growth of D-54MG cells indeed recovered by the addition of fourfold excess of cystine (FIG. 3E), but not with glutamate (FIG. 3D), the second substrate for system Xc.

[2] = tested on: primary astrocyte cultures; assay: growth of primary astrocyte cultures; format: cell-based; conditions: (S)-4-CPG 0.25 mM and 0.5 mM (FIG. 3C); sulfasalazine data not shown
D54-MG glioma cells = assay: histological markers of cell death and proliferation in tumor sections; format: in vivo, CB-17 scid mice
Description: To further examine effects of sulfasalazine in vivo at the cellular level, the tumor sections were examined with commonly used histological markers for cell death, including ApopTag/methyl green (FIGS. 8A and 8B) and terminal deoxynucleotidyl transferase-mediated biotinylated UTP nick end labeling (TUNEL) (FIGS. 8C and 8D), and proliferation (Ki-67) (FIGS. 8E and 8F). Multiple fields from several serial sections from two control group and two treatment group animals (see description above regarding FIG. 7A) were examined. […] Indeed, necrosis is a hallmark of grade IV gliomas and a necessary feature for their histopathological grading as such. At a higher resolution (40×), significant cell death was observed as evident from TUNEL (FIG. 8C) and caspase-3 staining (data not shown). In these figures, TUNEL staining is indicated by a lighter green color against a background of DAPI staining.

glioma cells = assay: total intracellular glutathione content in glioma cells; format: cell-based, human
Experimental: To determine if limiting cystine uptake via system Xc reduces the total intracellular glutathione content (GSH and glutathione disulfide), intracellular glutathione concentrations were determined in the presence and absence of sulfasalazine.

**Q.** O=C(O)c1cc(/N=N/c2ccc(S(=O)(=O)Nc3ccccn3)cc2)ccc1O [sulfasalazine] was tested. Which “growth of glioma cells” value [1] did it give?
**A.** Its value is “dose-dependent growth inhibitions”.

**Q.** What about the “growth of primary astrocyte cultures” value [2] of the same molecule?
**A.** The value was “Neither (S)-4-CPG (FIG. 3C) nor sulfasalazine (data not shown) affected”.

**Q.** And the “tumor necrosis (ApopTag)” value (D54-MG glioma cells; sulfasalazine-treated animals of FIG. 7A (FIG. 8B))?
**A.** Its value is “almost no evidence for necrosis”.

**Q.** And the Ki-67 index (D54-MG glioma cells; sulfasalazine-treated tumor sections, similar to control, no significant difference)?
**A.** Its Ki-67 index is “approximately 15”.

**Q.** What about the “TUNEL labeling in tumor sections” value (D54-MG glioma cells; sulfasalazine-treated versus control (FIG. 8D), not statistically significant) of the same molecule?
**A.** Its value is “reduced TUNEL”.

**Q.** And the “caspase-3 labeling in tumor sections” value (D54-MG glioma cells; sulfasalazine-treated versus control, data not shown)?
**A.** The value was “reduced”.

**Q.** What about the intracellular glutathione concentration (glioma cells; 0.25 mM, glioma cells D-54MG, U-87MG, U-251MG and primary glioma culture GBM64 (FIG. 2F)) of the same molecule?
**A.** Its intracellular glutathione concentration is “depleted intracellular glutathione concentration”.

**Q.** And the intracellular glutathione concentration (glioma cells; D-54MG glioma cells, sulfasalazine 50-500 μM, time and dose-dependent, after 24 h (FIG. 2D))?
**A.** The intracellular glutathione concentration was “almost complete glutathione depletion”.
